Measured values taken from publication PMC10889512, “Pyrimidine Schiff Bases: Synthesis, Structural Characterization and Recent Studies on Biological Activities” (International Journal of Molecular Sciences, 2024).
pIC50: −log10 of the molar value.

Experiments:
A172 cells = test: Flow cytometry annexin V/PI staining, cell death pathway, A172; assay type: cell-based, human; settings: A172, at IC50, 6, 18 and 24 h
Protocol: To confirm the cell death pathway, another approach to flow cytometry was used. […] Annexin V is a specific PS-binding protein, and thus it is used to detect apoptotic cells. Very few events could be observed in the first and the second quadrant, which represent apoptotic cells. Most events occurred in the third and the fourth quadrant, where unstained and necrotic cells were located. The 24 h measurements after both flow cytometry approaches were consistent with each other. […] Two approaches for flow cytometry were used—FDA/PI staining to determine cell viability and annexin V/PI staining for cell death pathway determination. For cell death pathway determination, cells were plated in 6-well plates at a density of 3 × 10^5 cells/well. […] After 6, 18, and 24 h incubation, adhered and floating cells were harvested, centrifuged at 1600 rpm, and washed with PBS. Next, the cells were washed with 1× annexin-binding buffer, and after centrifugation, cells from each test set were suspended in 100 µL of 1× annexin-binding buffer. To each tube, 5 µL of Alexa Fluor 488-annexin V stain was added, and the cells were incubated in the dark. After 15 min incubation, the cells were centrifuged at 1600 rpm to remove the dye, then suspended in 1 mL of 1× binding buffer and kept on ice. Prior to analysis, cells were stained for 2 min with 1 µM PI. […]

K. pneumoniae 700603 = test: Antimicrobial activity assay, microdilution; assay type: cell-based, Klebsiella pneumoniae; settings: concentration range from 0.5 µg/mL to 256 µg/mL
Protocol: (§1) In vitro antimicrobial and antifungal activity was screened using microdilution and modified Richard’s medium. The assay was performed for compounds 4a, 4b, 4c, and 4d with seven reference microbial strains from ATTC (E. coli 25922, S. aureus 43300, K. pneumoniae 700603, A. baumannii 19606, P. aeruginosa 27853, E. faecalis 29212, and C. albicans 10231).
(§2) Seven reference strains from the ATCC collection (Escherichia coli 25922, Staphylococcus aureus 43300, Klebsiella pneumoniae 13883, Acinetobacter baumannii 19606, Pseudomonas aeruginosa 27853, Enterococcus faecalis 29212, and Candida albicans 10231) were used. The assay was performed according to a modified version of Richard et al.’s protocol and ISO standards 20776-1:2019 and 16256:2021 [78, 79]. Microdilution with spectrophotometric measurement was used to calculate MIC50 (minimal inhibitory concentration which decreased the microorganisms’ viability to 50%) values. Briefly, compounds were prepared 100× concentrated in DMSO, and during the whole experiment, they were diluted to 1× with TSB. Serial dilutions of tested compounds were made directly on plates at a concentration range of 0.5 to 256 µg/mL. Microorganisms were incubated for 24 h at 37 °C (bacteria) or 25 °C (yeast) on Petri dishes with TSA. The bacteria/yeast suspensions were prepared at a density 5 × 10^5 CFU/mL (for bacteria) or 0.5–2.5 × 10^5 CFU/mL (for yeast) with TSB. Also, appropriate controls were contained in the experiment: the positive control consisted of a specific strain in TSB, and the negative control was TSB alone. To ensure that used strains were not modified and were still responding to antibacterial/antifungal compounds established by EUCAST, additional tests were conducted with levofloxacin, gentamicin, and amphotericin B. Microplates were incubated on a shaker for 24 h at 37 ± 1 °C or 25 ± 1 °C for the bacteria and yeast strains, respectively. After the incubation, spectrophotometric measurement was performed at 580 nm. MIC50 was calculated by comparing the results obtained for experimental sets with positive controls. Next, 50 µL aliquots of 1% (m/v) TTC solution were added to each well. The plates were incubated on the shaker for 24 h at 37/25 °C. In living microbial cells, colourless TTC is converted into red formazan crystals, which allows for visual observation and MBC/MFC (minimal bactericidal/fungicidal concentration) value assessment.

E. coli 25922 = test: Antimicrobial activity assay, microdilution; assay type: cell-based, Escherichia coli; settings: concentration range from 0.5 µg/mL to 256 µg/mL
Protocol: as §1, §2

AGS = test: Neutral red uptake assay on AGS; assay type: cell-based, human; settings: 72 h treatment
Protocol: (§3) Based on the results obtained for the RPTEC cell line, the following concentrations of 4b–d were chosen to be applied to neoplastic cell lines: 0.1, 1, 10, 25, 50, and 100 µM. A172, AGS, CaCo-2, HeLa, and HepG2 cancer cell lines were used to perform a neutral red uptake assay. The obtained results were compared with a negative control (cell lines incubated without tested compounds), and half-maximal inhibitory concentration (IC50) values were calculated. Cell lines were plated in 96-well plates at a density of 1 × 10^4 cells/well. After 24 h incubation, which allowed the cells to attach and start to proliferate, the culture media were replaced with 4a–d dissolved in the appropriate medium at concentrations of 1, 10, 50, 100, 150 and 200 µM. […] Negative (1% DMSO in medium) and positive (1 µM staurosporine) controls were also included. Plates were incubated at 37 °C for 24, 48, and 72 h before the neutral red uptake assay. The neutral red uptake assay was performed as described by Repetto et al.. Briefly, the medium from all wells was discarded, the attached cells were washed with 100 µL PBS, and then 100 µL of neutral red working solution in medium (40 µg/mL) was added to each well. The neutral red solution was incubated overnight in the same conditions as the cells and centrifuged before being added to the cells. The plates were incubated for at least 2 h at 37 °C, 5% CO2, in a humidified atmosphere. Next, the neutral red medium was removed, and the cells were washed with 100 µL PBS. A 100 µL quantity of destain solution consisting of 50% ethanol, 1% glacial acetic acid, and deionized water was added to each well. Plates were incubated for 30 min with constant shaking on a horizontal shaker at 37 °C. Absorption was measured at 540 nm excitation. The cells’ viability was calculated by comparing results from experimental sets with negative controls according to the formula: % viability=ODtest substance−ODblind/ODnegative control−ODblind×100

E. faecalis 29212 = test: Antimicrobial activity assay, microdilution; assay type: cell-based, Enterococcus faecalis; settings: concentration range from 0.5 µg/mL to 256 µg/mL
Protocol: as §1, §2

A172 = test: Neutral red uptake assay on A172; assay type: cell-based, human; settings: A172, 72 h treatment
Protocol: as §3

pIC50 (AGS): 4.49 | pIC50 (AGS; Homo sapiens, 72 h): 4.49
Compound: Cc1nc(-c2ccccc2)nc(Nc2ccc(F)cc2)c1C=Nc1cccc(Cl)c1 [compound 4b, 5-{[(3-chlorophenyl)imino]methyl}-N-(4-fluorophenyl)-6-methyl-2-phenylpyrimidin-4-amine]
cell death pathway (A172 cells): irreversible cell injury and necrosis | MIC and MBC/MFC activity (K. pneumoniae 700603): Neither MIC nor MBC/MFC activity was observed | MIC and MBC/MFC activity (E. coli 25922): Neither MIC nor MBC/MFC activity was observed | MIC and MBC/MFC activity (E. faecalis 29212): Neither MIC nor MBC/MFC activity was observed | pIC50 (A172): 4.20 | pIC50 (A172; Homo sapiens, A 172, 72 h): 4.20
